Measurements as given in ChEMBL document CHEMBL1124546, “Synthesis of unsymmetrically substituted 1,4-bis[(aminoalkyl)amino]anthracene-9,10-diones as potential antileukemic agents” (1989).
Values after ≈ are worked out from the molar mass of the structure shown.

What was measured:
[1] = system: P388; assay: (§1) Survivors of CDF1 mice on day 4 after 1st injection of compound at 40 mg/kg in six mice; 6/6; type: functional, Mus musculus
[2] = Survivors of CDF1 mice on day 4 after 1st injection of compound at 10 mg/kg in six mice; 6/6; type: functional, Mus musculus
[3] = system: P388; assay: (§2) Survivors of CDF1 mice on day 4 after 1st injection of compound 80 at mg/kg in six mice; 6/6; type: functional, Mus musculus
[4] = Survivors of CDF1 mice on day 4 after 1st injection of compound at 20 mg/kg in six mice; 6/6; type: functional, Mus musculus
[5] = system: L1210; assay: Concentration required to inhibit the growth of L1210 leukemia cells; type: functional; details: Mus musculus, read-out: ED50 (the source's name)
[6] = system: P388; assay: Percent ratio of the medium survival time for P388 murine leukemia in CDF1 mice at 10 mg/kg; type: functional, Mus musculus
[7] = Survivors of CDF1 mice on day 4 after 1st injection of compound at 5 mg/kg in six mice; 6/6; type: functional, Mus musculus
[8] = Survivors of CDF1 mice on day 4 after 1st injection of compound at 10 mg/kg in seven mice; 7/7; type: functional, Mus musculus
[9] = system: P388; assay: Percent ratio of the medium survival time for P388 murine leukemia in CDF1 mice at 1.25 mg/kg; type: functional, Mus musculus
[10] = system: P388; assay: Percent ratio of the medium survival time for P388 murine leukemia in CDF1 mice at 40 mg/kg; type: functional, Mus musculus
[11] = system: P388; assay: Percent ratio of the medium survival time for P388 murine leukemia in CDF1 mice at 5 mg/kg; type: functional, Mus musculus
[12] = Survivors of CDF1 mice on day 4 after 1st injection of compound at 2.5 mg/kg in seven mice; 7/7; type: functional, Mus musculus
[13] = system: P388; assay: Percent ratio of the medium survival time for P388 murine leukemia in CDF1 mice at 20 mg/kg; type: functional, Mus musculus
[14] = Survivors of CDF1 mice on day 4 after 1st injection of compound at 20 mg/kg in seven mice; 7/7; type: functional, Mus musculus
[15] = Survivors of CDF1 mice on day 4 after 1st injection of compound 40 at mg/kg in seven mice; 5/7; type: functional, Mus musculus
[16] = Survivors of CDF1 mice on day 4 after 1st injection of compound at 1.25 mg/kg in seven mice; 7/7; type: functional, Mus musculus
[17] = Survivors of CDF1 mice on day 4 after 1st injection of compound at 5 mg/kg in seven mice; 7/7; type: functional, Mus musculus
[18] = system: P388; assay: Percent ratio of the medium survival time for P388 murine leukemia in CDF1 mice at 2.5 mg/kg; type: functional, Mus musculus
[19] = as §1; type: functional, Mus musculus
[20] = as §2; type: functional, Mus musculus
[21] = system: P388; assay: Percent ratio of the medium survival time for P388 murine leukemia in CDF1 mice at 80 mg/kg; type: functional, Mus musculus
[22] = system: P388; assay: Percent ratio of the medium survival time for P388 murine leukemia in CDF1 mice at 3 mg/kg; type: functional, Mus musculus
[23] = system: P388; assay: Percent ratio of the medium survival time for P388 murine leukemia in CDF1 mice at 0.75 mg/kg; type: functional, Mus musculus
[24] = Survivors of CDF1 mice on day 4 after 1st injection of compound at 0.75 mg/kg in six mice; 6/6; type: functional, Mus musculus
[25] = Survivors of CDF1 mice on day 4 after 1st injection of compound at 1.5 mg/kg in six mice; 6/6; type: functional, Mus musculus
[26] = Survivors of CDF1 mice on day 4 after 1st injection of compound at 3 mg/kg in six mice; 6/6; type: functional, Mus musculus
[27] = Survivors of CDF1 mice on day 4 after 1st injection of compound 12 at mg/kg in six mice; 6/6; type: functional, Mus musculus
[28] = system: P388; assay: Percent ratio of the medium survival time for P388 murine leukemia in CDF1 mice at 6 mg/kg; type: functional, Mus musculus
[29] = system: P388; assay: Percent ratio of the medium survival time for P388 murine leukemia in CDF1 mice at 1.5 mg/kg; type: functional, Mus musculus
[30] = Survivors of CDF1 mice on day 4 after 1st injection of compound at 6 mg/kg in six mice; 6/6; type: functional, Mus musculus
[31] = system: P388; assay: Percent ratio of the medium survival time for P388 murine leukemia in CDF1 mice at 12 mg/kg; type: functional, Mus musculus
[32] = Survivors of CDF1 mice on day 4 after 1st injection of compound at 3.12 mg/kg in six mice; 6/6; type: functional, Mus musculus
[33] = Survivors of CDF1 mice on day 4 after 1st injection of compound at 6.25 mg/kg in six mice; 6/6; type: functional, Mus musculus
[34] = system: P388; assay: Percent ratio of the medium survival time for P388 murine leukemia in CDF1 mice at 12.5 mg/kg; type: functional, Mus musculus
[35] = Survivors of CDF1 mice on day 4 after 1st injection of compound at 12.5 mg/kg in six mice; 6/6; type: functional, Mus musculus
[36] = system: P388; assay: Percent ratio of the medium survival time for P388 murine leukemia in CDF1 mice at 25 mg/kg; type: functional, Mus musculus
[37] = system: P388; assay: Percent ratio of the medium survival time for P388 murine leukemia in CDF1 mice at 6.25 mg/kg; type: functional, Mus musculus
[38] = Survivors of CDF1 mice on day 4 after 1st injection of compound 25 at mg/kg in six mice; 6/6; type: functional, Mus musculus
[39] = system: P388; assay: Percent ratio of the medium survival time for P388 murine leukemia in CDF1 mice at 3.12 mg/kg; type: functional, Mus musculus

Compound	Survival [2]	Survival [4]	EC50 [5]	T/C [6]	Survival [7]	T/C [10]	T/C [11]	T/C [13]	Survival [19]	Survival [20]	also measured
CC(C)(CO)NCCNc1ccc(NCCNCCO)c2c1C(=O)c1ccccc1C2=O	6	6	1.48 µg/mL (≈ 3.36 µM)	151%	6	–	–	–	–	–	Survival [1]: 6; Survival [3]: 6
NCCNc1ccc(NCCNCCO)c2c1C(=O)c1ccccc1C2=O	–	–	2.38 µg/mL (≈ 6.46 µM)	300%	–	80%	200%	300%	–	–	Survival [8]: 7; T/C [9]: 170%; Survival [12]: 7; Survival [14]: 7; Survival [15]: 5; Survival [16]: 7; Survival [17]: 7; T/C [18]: 180%
O=C1c2ccccc2C(=O)c2c(NCCN3CCOCC3)ccc(NCCNCCO)c21	6	6	2.36 µg/mL (≈ 5.38 µM)	132%	6	–	–	–	6	6	–
O=C1c2ccccc2C(=O)c2c(NCCNCCO)ccc(NCCO)c21	6	6	12.3 µg/mL (≈ 33.3 µM)	125%	6	127%	115%	142%	6	6	T/C [21]: 144%
CN(C)CCNc1ccc(NCCNCCO)c2c1C(=O)c1ccccc1C2=O	6	6	0.64 µg/mL (≈ 1.61 µM)	151%	6	192%	144%	173%	6	6	T/C [21]: 192%
O=C1c2c(O)ccc(O)c2C(=O)c2c(NCCNCCO)ccc(NCCNCCO)c21 [MITOXANTRONE]	–	–	–	–	–	–	–	–	–	–	T/C [22]: 288%; T/C [23]: 209%; Survival [24]: 6; Survival [25]: 6; Survival [26]: 6; Survival [27]: 6; T/C [28]: 192%; T/C [29]: 201%; Survival [30]: 6; T/C [31]: 118%
O=C1c2ccccc2C(=O)c2c(NCCNCCO)ccc(NCCNCCO)c21 [AMETANTRONE]	–	–	2.54 µg/mL (≈ 6.16 µM)	–	–	–	–	–	–	–	Survival [32]: 6; Survival [33]: 6; T/C [34]: 300%; Survival [35]: 6; T/C [36]: 200%; T/C [37]: 240%; Survival [38]: 6; T/C [39]: 200%
